Data as given in the NIST ThermoML archive (doi:10.1021/je500211w).

Assay: xn = mol fraction of the nth substance listed
Conditions: 101 kPa, Liquid, NMR spin-echo technique

OCC(F)(F)F [2,2,2-trifluoroethanol] + O
binary diffusion coefficient [m2/s]
Conditions	283.2 K	288.2 K	293.2 K	298.2 K	303.2 K	308.2 K	313.2 K
x1 = 0.000511	7.32e-10	8.43e-10	1.02e-09	1.13e-09	1.28e-09	1.44e-09	1.71e-09
x1 = 0.001034	7.18e-10	8.44e-10	9.98e-10	1.11e-09	1.27e-09	1.46e-09	1.71e-09
x1 = 0.004989	6.91e-10	8.01e-10	9.67e-10	1.1e-09	1.23e-09	1.41e-09	1.66e-09
x1 = 0.009331	6.69e-10	7.62e-10	9.35e-10	1.1e-09	1.2e-09	1.36e-09	1.57e-09
x1 = 0.01008	6.68e-10	7.87e-10	8.96e-10	1.06e-09	1.23e-09	1.37e-09	1.57e-09
x1 = 0.04965	4.57e-10	5.52e-10	7.24e-10	8.51e-10	9.71e-10	1.1e-09	1.28e-09
